From ChEMBL document CHEMBL3217454, “Structureactivity relationship studies using peptide arrays: the example of HIV-1 Revintegrase interaction” (Medchemcomm, 2013)
Square brackets hold non-standard residues; d marks the D form. Peptide text beside a SMILES is read from it. NMeT = CN[C@H](C(=O)O)[C@@H](C)O; NMeK = CN[C@@H](CCCCN)C(=O)O; NMeV = CN[C@H](C(=O)O)C(C)C; NMeS = CN[C@@H](CO)C(=O)O; NMeA = CN[C@@H](C)C(=O)O

Experiments:
[1] = target: Human immunodeficiency virus type 1 integrase (Human immunodeficiency virus 1) (UniProt Q7ZJM1); experiment: Binding affinity to HIV-1 integrase measured after overnight incubation by chemiluminescence analysis relative to IN 118-128; design: concentration or dose not given beside the values
Chain of Human immunodeficiency virus type 1 integrase (Human immunodeficiency virus 1) (Q7ZJM1 as listed by the source): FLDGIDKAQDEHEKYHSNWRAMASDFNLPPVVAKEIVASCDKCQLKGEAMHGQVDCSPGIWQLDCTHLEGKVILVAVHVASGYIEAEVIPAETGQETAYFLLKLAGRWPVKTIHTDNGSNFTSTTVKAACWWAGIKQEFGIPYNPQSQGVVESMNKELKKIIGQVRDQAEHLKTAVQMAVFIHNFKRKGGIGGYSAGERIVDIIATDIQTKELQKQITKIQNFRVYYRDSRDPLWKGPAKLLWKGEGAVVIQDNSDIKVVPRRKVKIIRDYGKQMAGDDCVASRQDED

[2] = system: Human immunodeficiency virus 1; experiment: Binding affinity to HLT-tagged HIV-1 Rev measured after overnight incubation by chemiluminescence analysis relative to IN 118-128; design: concentration or dose not given beside the values

## CC(C)[C@H](NC(=O)[C@@H](NC(=O)[C@@H](NC(=O)[C@H](CO)NC(=O)[C@@H](NC(=O)[C@@H](Cc1ccccc1)NC(=O)[C@H](CC(N)=O)NC(=O)[C@H](CO)NC(=O)CN)[C@@H](C)O)[C@@H](C)O)[C@@H](C)O)C(=O)N[C@@H](CCCCN)C(=O)N[C@@H](C)C(=O)O
[1]
  Activity: 229%
[2]
  Activity: 211%

## CC(C)[C@H](NC(=O)[C@@H](NC(=O)[C@@H](NC(=O)[C@H](CO)NC(=O)[C@@H](NC(=O)[C@H](Cc1ccccc1)NC(=O)[C@@H](CC(N)=O)NC(=O)[C@H](CO)NC(=O)CN)[C@@H](C)O)[C@@H](C)O)[C@@H](C)O)C(=O)N[C@@H](CCCCN)C(=O)N[C@@H](C)C(=O)O
[1]
  Activity: 133%
[2]
  Activity: 144%

## CC(C)[C@H](NC(=O)[C@@H](NC(=O)[C@@H](NC(=O)[C@H](CO)NC(=O)[C@@H](NC(=O)[C@H](Cc1ccccc1)NC(=O)[C@H](CC(N)=O)NC(=O)[C@@H](CO)NC(=O)CN)[C@@H](C)O)[C@@H](C)O)[C@@H](C)O)C(=O)N[C@@H](CCCCN)C(=O)N[C@@H](C)C(=O)O
[1]
  Activity: 346%
[2]
  Activity: 190%

## CC(C)[C@H](NC(=O)[C@@H](NC(=O)[C@@H](NC(=O)[C@H](CO)NC(=O)[C@H](NC(=O)[C@H](Cc1ccccc1)NC(=O)[C@H](CC(N)=O)NC(=O)[C@H](CO)NC(=O)CN)[C@@H](C)O)[C@@H](C)O)[C@@H](C)O)C(=O)N[C@@H](CCCCN)C(=O)N[C@@H](C)C(=O)O
[1]
  Activity: 58%
[2]
  Activity: 52%

## CC(C)[C@H](NC(=O)[C@@H](NC(=O)[C@@H](NC(=O)[C@H](CO)NC(=O)[C@@H](NC(=O)[C@H](Cc1ccccc1)NC(=O)[C@H](CC(N)=O)NC(=O)[C@H](CO)NC(=O)[C@H](C)N)[C@@H](C)O)[C@@H](C)O)[C@@H](C)O)C(=O)N[C@@H](CCCCN)C(=O)N[C@@H](C)C(=O)O (H-ASNFTSTTVKA-OH)
[1]
  Activity: 116%
[2]
  Activity: 77%

## CC(C)[C@H](NC(=O)[C@@H](NC(=O)[C@@H](NC(=O)[C@H](CO)NC(=O)[C@@H](NC(=O)[C@@H](N)Cc1ccccc1)[C@@H](C)O)[C@@H](C)O)[C@@H](C)O)C(=O)N[C@@H](CCCCN)C(=O)N[C@@H](C)C(=O)O (H-FTSTTVKA-OH)
[1]
  Activity: 236%
[2]
  Activity: 280%

## CC(C)[C@H](NC(=O)[C@@H](NC(=O)[C@@H](NC(=O)[C@H](CO)NC(=O)[C@@H](NC(=O)[C@H](Cc1ccccc1)NC(=O)[C@H](CC(N)=O)NC(=O)[C@H](C)NC(=O)CN)[C@@H](C)O)[C@@H](C)O)[C@@H](C)O)C(=O)N[C@@H](CCCCN)C(=O)N[C@@H](C)C(=O)O (H-GANFTSTTVKA-OH)
[1]
  Activity: 177%
[2]
  Activity: 146%

## CC(C)[C@H](NC(=O)[C@@H](NC(=O)[C@@H](NC(=O)[C@H](CO)NC(=O)[C@@H](NC(=O)[C@H](Cc1ccccc1)NC(=O)[C@H](C)NC(=O)[C@H](CO)NC(=O)CN)[C@@H](C)O)[C@@H](C)O)[C@@H](C)O)C(=O)N[C@@H](CCCCN)C(=O)N[C@@H](C)C(=O)O (H-GSAFTSTTVKA-OH)
[1]
  Activity: 198%
[2]
  Activity: 151%

## CC(C)[C@H](NC(=O)[C@@H](NC(=O)[C@@H](NC(=O)[C@H](CO)NC(=O)[C@@H](NC(=O)[C@H](C)NC(=O)[C@H](CC(N)=O)NC(=O)[C@H](CO)NC(=O)CN)[C@@H](C)O)[C@@H](C)O)[C@@H](C)O)C(=O)N[C@@H](CCCCN)C(=O)N[C@@H](C)C(=O)O (H-GSNATSTTVKA-OH)
[1]
  Activity: 133%
[2]
  Activity: 31%

## CC(C)[C@H](NC(=O)[C@@H](NC(=O)[C@@H](NC(=O)[C@H](CO)NC(=O)[C@H](C)NC(=O)[C@H](Cc1ccccc1)NC(=O)[C@H](CC(N)=O)NC(=O)[C@H](CO)NC(=O)CN)[C@@H](C)O)[C@@H](C)O)C(=O)N[C@@H](CCCCN)C(=O)N[C@@H](C)C(=O)O (H-GSNFASTTVKA-OH)
[1]
  Activity: 228%
[2]
  Activity: 120%

## CC(C)[C@H](NC(=O)[C@@H](NC(=O)[C@@H](NC(=O)[C@H](C)NC(=O)[C@@H](NC(=O)[C@H](Cc1ccccc1)NC(=O)[C@H](CC(N)=O)NC(=O)[C@H](CO)NC(=O)CN)[C@@H](C)O)[C@@H](C)O)[C@@H](C)O)C(=O)N[C@@H](CCCCN)C(=O)N[C@@H](C)C(=O)O (H-GSNFTATTVKA-OH)
[1]
  Activity: 135%
[2]
  Activity: 182%

## C[C@@H](O)[C@H](NC(=O)[C@H](Cc1ccccc1)NC(=O)[C@H](CC(N)=O)NC(=O)[C@H](CO)NC(=O)CN)C(=O)N[C@@H](CO)C(=O)O (H-GSNFTS-OH)
[1]
  Activity: 0%
[2]
  Activity: 0%

## CC(C)[C@H](NC(=O)[C@@H](NC(=O)[C@H](C)NC(=O)[C@H](CO)NC(=O)[C@@H](NC(=O)[C@H](Cc1ccccc1)NC(=O)[C@H](CC(N)=O)NC(=O)[C@H](CO)NC(=O)CN)[C@@H](C)O)[C@@H](C)O)C(=O)N[C@@H](CCCCN)C(=O)N[C@@H](C)C(=O)O (H-GSNFTSATVKA-OH)
[1]
  Activity: 231%
[2]
  Activity: 107%

## C[C@@H](O)[C@H](NC(=O)[C@H](CO)NC(=O)[C@@H](NC(=O)[C@H](Cc1ccccc1)NC(=O)[C@H](CC(N)=O)NC(=O)[C@H](CO)NC(=O)CN)[C@@H](C)O)C(=O)O (H-GSNFTST-OH)
[1]
  Activity: 34%
[2]
  Activity: 0%

## CC(C)[C@H](NC(=O)[C@H](C)NC(=O)[C@@H](NC(=O)[C@H](CO)NC(=O)[C@@H](NC(=O)[C@H](Cc1ccccc1)NC(=O)[C@H](CC(N)=O)NC(=O)[C@H](CO)NC(=O)CN)[C@@H](C)O)[C@@H](C)O)C(=O)N[C@@H](CCCCN)C(=O)N[C@@H](C)C(=O)O (H-GSNFTSTAVKA-OH)
[1]
  Activity: 182%
[2]
  Activity: 124%

## C[C@@H](O)[C@H](NC(=O)[C@@H](NC(=O)[C@H](CO)NC(=O)[C@@H](NC(=O)[C@H](Cc1ccccc1)NC(=O)[C@H](CC(N)=O)NC(=O)[C@H](CO)NC(=O)CN)[C@@H](C)O)[C@@H](C)O)C(=O)O (H-GSNFTSTT-OH)
[1]
  Activity: 19%
[2]
  Activity: 0%

## C[C@H](NC(=O)[C@H](CCCCN)NC(=O)[C@H](C)NC(=O)[C@@H](NC(=O)[C@@H](NC(=O)[C@H](CO)NC(=O)[C@@H](NC(=O)[C@H](Cc1ccccc1)NC(=O)[C@H](CC(N)=O)NC(=O)[C@H](CO)NC(=O)CN)[C@@H](C)O)[C@@H](C)O)[C@@H](C)O)C(=O)O (H-GSNFTSTTAKA-OH)
[1]
  Activity: 129%
[2]
  Activity: 64%

## CC(C)[C@H](NC(=O)[C@@H](NC(=O)[C@@H](NC(=O)[C@H](CO)NC(=O)[C@@H](NC(=O)[C@H](Cc1ccccc1)NC(=O)[C@H](CC(N)=O)NC(=O)[C@H](CO)NC(=O)CN)[C@@H](C)O)[C@@H](C)O)[C@@H](C)O)C(=O)O (H-GSNFTSTTV-OH)
[1]
  Activity: 27%
[2]
  Activity: 0%

## CC(C)[C@H](NC(=O)[C@@H](NC(=O)[C@@H](NC(=O)[C@H](CO)NC(=O)[C@@H](NC(=O)[C@H](Cc1ccccc1)NC(=O)[C@H](CC(N)=O)NC(=O)[C@H](CO)NC(=O)CN)[C@@H](C)O)[C@@H](C)O)[C@@H](C)O)C(=O)N[C@@H](C)C(=O)N[C@@H](C)C(=O)O (H-GSNFTSTTVAA-OH)
[1]
  Activity: 85%
[2]
  Activity: 0%

## CC(C)[C@H](NC(=O)[C@@H](NC(=O)[C@@H](NC(=O)[C@H](CO)NC(=O)[C@@H](NC(=O)[C@H](Cc1ccccc1)NC(=O)[C@H](CC(N)=O)NC(=O)[C@H](CO)NC(=O)CN)[C@@H](C)O)[C@@H](C)O)[C@@H](C)O)C(=O)N[C@@H](CCCCN)C(=O)O (H-GSNFTSTTVK-OH)
[1]
  Activity: 242%
[2]
  Activity: 201%

## CC(C)[C@H](NC(=O)[C@@H](NC(=O)[C@@H](NC(=O)[C@H](CO)NC(=O)[C@@H](NC(=O)[C@H](Cc1ccccc1)NC(=O)[C@H](CC(N)=O)NC(=O)[C@H](CO)NC(=O)CN)[C@@H](C)O)[C@@H](C)O)[C@@H](C)O)C(=O)N[C@@H](CCCCN)C(=O)N(C)[C@@H](C)C(=O)O (H-GSNFTSTTVK[NMeA]-OH)
[1]
  Activity: 136%
[2]
  Activity: 141%

## CC(C)[C@H](NC(=O)[C@@H](NC(=O)[C@@H](NC(=O)[C@H](CO)NC(=O)[C@@H](NC(=O)[C@H](Cc1ccccc1)NC(=O)[C@H](CC(N)=O)NC(=O)[C@H](CO)NC(=O)CN)[C@@H](C)O)[C@@H](C)O)[C@@H](C)O)C(=O)N(C)[C@@H](CCCCN)C(=O)N[C@@H](C)C(=O)O (H-GSNFTSTTV[NMeK]A-OH)
[1]
  Activity: 185%
[2]
  Activity: 191%

## CC(C)[C@@H](C(=O)N[C@@H](CCCCN)C(=O)N[C@@H](C)C(=O)O)N(C)C(=O)[C@@H](NC(=O)[C@@H](NC(=O)[C@H](CO)NC(=O)[C@@H](NC(=O)[C@H](Cc1ccccc1)NC(=O)[C@H](CC(N)=O)NC(=O)[C@H](CO)NC(=O)CN)[C@@H](C)O)[C@@H](C)O)[C@@H](C)O (H-GSNFTSTT[NMeV]KA-OH)
[1]
  Activity: 273%
[2]
  Activity: 215%

## CC(C)[C@H](NC(=O)[C@H]([C@@H](C)O)N(C)C(=O)[C@@H](NC(=O)[C@H](CO)NC(=O)[C@@H](NC(=O)[C@H](Cc1ccccc1)NC(=O)[C@H](CC(N)=O)NC(=O)[C@H](CO)NC(=O)CN)[C@@H](C)O)[C@@H](C)O)C(=O)N[C@@H](CCCCN)C(=O)N[C@@H](C)C(=O)O (H-GSNFTST[NMeT]VKA-OH)
[1]
  Activity: 265%
[2]
  Activity: 168%

## CC(C)[C@H](NC(=O)[C@@H](NC(=O)[C@H]([C@@H](C)O)N(C)C(=O)[C@H](CO)NC(=O)[C@@H](NC(=O)[C@H](Cc1ccccc1)NC(=O)[C@H](CC(N)=O)NC(=O)[C@H](CO)NC(=O)CN)[C@@H](C)O)[C@@H](C)O)C(=O)N[C@@H](CCCCN)C(=O)N[C@@H](C)C(=O)O (H-GSNFTS[NMeT]TVKA-OH)
[1]
  Activity: 249%
[2]
  Activity: 197%

## CC(C)[C@H](NC(=O)[C@@H](NC(=O)[C@@H](NC(=O)[C@H](CO)N(C)C(=O)[C@@H](NC(=O)[C@H](Cc1ccccc1)NC(=O)[C@H](CC(N)=O)NC(=O)[C@H](CO)NC(=O)CN)[C@@H](C)O)[C@@H](C)O)[C@@H](C)O)C(=O)N[C@@H](CCCCN)C(=O)N[C@@H](C)C(=O)O (H-GSNFT[NMeS]TTVKA-OH)
[1]
  Activity: 312%
[2]
  Activity: 279%

## CC(C)[C@H](NC(=O)[C@@H](NC(=O)[C@@H](NC(=O)[C@H](CO)NC(=O)[C@H]([C@@H](C)O)N(C)C(=O)[C@H](Cc1ccccc1)NC(=O)[C@H](CC(N)=O)NC(=O)[C@H](CO)NC(=O)CN)[C@@H](C)O)[C@@H](C)O)C(=O)N[C@@H](CCCCN)C(=O)N[C@@H](C)C(=O)O (H-GSNF[NMeT]STTVKA-OH)
[1]
  Activity: 165%
[2]
  Activity: 200%
